# Assay results published in patent publication US11085056B2, “Transfection complexes and methods of using the same” (MOLECULAR TRANSFER, INC., priority 2015, dated 2021).
# How the values were obtained:
# [1] = tested on: HuVec Cells; test: Transfection of HuVec cells with DOTMA/DOPE/peptide and eGFP plasmid, fluorescent plate reader; type: cell-based; settings: DOTMA/DOPE 1:1 plus peptide with RRRRRRRRRRRR (SEQ ID NO: 109) at n terminus; EF1Alpha eGFP plasmid; 0.01 mL complex; 42 hours
# In short: (§1)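 Cells at 60-70% confluence got DOTMA/DOPE (1:1) mixed with peptides bearing an N-terminal R12 DNA-binding tag, complexed 10 min with EF1α-eGFP plasmid (5 μg/mL in OptiMEM); 0.01 or 0.02 mL complex per well. After 42 h at 37 °C, GFP read by fluorescence plate reader and % transfected cells by microscopy, relative to lipid without peptide.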
# [2] = tested on: Jurkat Cells; test: Transfection of Jurkat cells with DOTMA/DOPE/peptide and eGFP plasmid, fluorescent plate reader; type: cell-based; settings: DOTMA/DOPE 1:1 plus peptide with RRRRRRRRRRRR (SEQ ID NO: 109) at n terminus; EF1Alpha eGFP plasmid; 0.02 mL complex; 42 hours
# In short: as §1
# [3] = tested on: NL-1 iPS Cells; test: Transfection of NL-1 iPS cells with DOTMA/DOPE/peptide and eGFP plasmid, fluorescent plate reader; type: cell-based; settings: DOTMA/DOPE 1:1 plus peptide with RRRRRRRRRRRR (SEQ ID NO: 109) at n terminus; EF1Alpha eGFP plasmid; 42 hours
# [4] = tested on: some examined cell types; test: Transfection expression and % cells transfected over the no peptide control; type: cell-based; settings: on some examined cell types
# In short: as §1
# [5] = tested on: HeLa Cells; test: Transfection of HeLa cells with DOTMA/DOPE/peptide and eGFP plasmid, fluorescent plate reader; type: cell-based; settings: DOTMA/DOPE 1:1 plus peptide with RRRRRRRRRRRR (SEQ ID NO: 109) at n terminus; EF1Alpha eGFP plasmid; 0.01 mL complex; 42 hours
# In short: as §1
# [6] = tested on: Human Fibroblast Cells; test: Transfection of human fibroblast cells with DOTMA/DOPE/peptide and eGFP plasmid, fluorescent plate reader; type: cell-based; settings: DOTMA/DOPE 1:1 plus peptide with RRRRRRRRRRRR (SEQ ID NO: 109) at n terminus; EF1Alpha eGFP plasmid; 0.01 mL complex; 42 hours
# In short: as §1
# [7] = tested on: C2C12 Cells; test: Transfection of C2C12 cells with DOTMA/DOPE/peptide and eGFP plasmid, fluorescent plate reader; type: cell-based, mouse; settings: DOTMA/DOPE 1:1 plus peptide with RRRRRRRRRRRR (SEQ ID NO: 109) at n terminus; EF1Alpha eGFP plasmid; 0.02 mL complex; 42 hours
# In short: as §1
# [8] = tested on: HeLa Cells; test: Transfection of HeLa cells with DOTMA/SEQ ID NO: 72/peptide compared with Lipofectamine 2000; type: cell-based; settings: fusogenic peptide 0.1 mg/mL
# In short: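 HeLa cells at 60–70% confluence received 0.01 mL of complexes of EF1Alpha eGFP plasmid (5 μg/mL in OptiMEM) with DOTMA/DOPE (1:1) plus R12-linked peptide, with fusogenic peptide at 0.1 mg/mL final. GFP read by fluorescence plate reader and microscopy (% cells transfected) after 42 h at 37 °C.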
# [9] = 0.1 μL of DOTMA/SEQ ID NO: 72/Peptide in well of a 96 well plate
# [10] = 0.2 μL of DOTMA/SEQ ID NO: 72/Peptide in well of a 96 well plate
# [11] = 0.3 μL of DOTMA/SEQ ID NO: 72/Peptide in well of a 96 well plate
# [12] = 0.4 μL of DOTMA/SEQ ID NO: 72/Peptide in well of a 96 well plate
substance,measurement,setting,value
328 (NWRHISYITRFG; Peptidic transfection agent) [compound 328],RF (Relative Fluorescence) of Transfection of HuVec Cells,[1],3614
same,RF (Relative Fluorescence) of Transfection of Jurkat Cells,[2],4770
same,RF (Relative Fluorescence) of Transfection of NL-1 iPS Cells,[3],8611
same,transfection expression and the % cells transfected over the no peptide control,[4],increased
same,RF (Relative Fluorescence) of Transfection of HeLa Cells,[5],32528
same,RF (Relative Fluorescence) of Transfection of Human Fibroblast Cells,[6],5641
same,RF (Relative Fluorescence) of Transfection of C2C12 Cells,[7],5507
same,"RF (Relative Fluorescence), DOTMA/SEQ ID NO: 72/Peptide, HeLa Cells",[8]; [9],11037
same,"RF (Relative Fluorescence), DOTMA/SEQ ID NO: 72/Peptide, HeLa Cells",[8]; [10],12229
same,"RF (Relative Fluorescence), DOTMA/SEQ ID NO: 72/Peptide, HeLa Cells",[8]; [11],10801
same,"RF (Relative Fluorescence), DOTMA/SEQ ID NO: 72/Peptide, HeLa Cells",[8]; [12],10951
326 (RLVSYSGVLFFLK; Peptidic transfection agent) [compound 326],RF (Relative Fluorescence) of Transfection of HuVec Cells,[1],4932
same,RF (Relative Fluorescence) of Transfection of Jurkat Cells,[2],3018
same,RF (Relative Fluorescence) of Transfection of NL-1 iPS Cells,[3],9239
same,transfection expression and the % cells transfected over the no peptide control,[4],increased
same,RF (Relative Fluorescence) of Transfection of HeLa Cells,[5],18946
same,RF (Relative Fluorescence) of Transfection of Human Fibroblast Cells,[6],3070
same,RF (Relative Fluorescence) of Transfection of C2C12 Cells,[7],8553
same,"RF (Relative Fluorescence), DOTMA/SEQ ID NO: 72/Peptide, HeLa Cells",[8]; [9],6887
same,"RF (Relative Fluorescence), DOTMA/SEQ ID NO: 72/Peptide, HeLa Cells",[8]; [10],9487
same,"RF (Relative Fluorescence), DOTMA/SEQ ID NO: 72/Peptide, HeLa Cells",[8]; [11],10330
same,"RF (Relative Fluorescence), DOTMA/SEQ ID NO: 72/Peptide, HeLa Cells",[8]; [12],9227
365 (ISRCQVCMKKRH; Peptidic transfection agent) [compound 365],RF (Relative Fluorescence) of Transfection of HuVec Cells,[1],14764
same,RF (Relative Fluorescence) of Transfection of Jurkat Cells,[2],5298
same,RF (Relative Fluorescence) of Transfection of NL-1 iPS Cells,[3],6364
same,transfection expression and the % cells transfected over the no peptide control,[4],increased
same,RF (Relative Fluorescence) of Transfection of HeLa Cells,[5],36093
same,RF (Relative Fluorescence) of Transfection of Human Fibroblast Cells,[6],5219
same,RF (Relative Fluorescence) of Transfection of C2C12 Cells,[7],5390
same,"RF (Relative Fluorescence), DOTMA/SEQ ID NO: 72/Peptide, HeLa Cells",[8]; [9],26620
same,"RF (Relative Fluorescence), DOTMA/SEQ ID NO: 72/Peptide, HeLa Cells",[8]; [10],43775
same,"RF (Relative Fluorescence), DOTMA/SEQ ID NO: 72/Peptide, HeLa Cells",[8]; [11],36054
same,"RF (Relative Fluorescence), DOTMA/SEQ ID NO: 72/Peptide, HeLa Cells",[8]; [12],21540
353 (KKQRFRHRNRKGYRSQ; Peptidic transfection agent) [compound 353],RF (Relative Fluorescence) of Transfection of HuVec Cells,[1],8772
same,RF (Relative Fluorescence) of Transfection of Jurkat Cells,[2],11107
same,RF (Relative Fluorescence) of Transfection of NL-1 iPS Cells,[3],9248
same,transfection expression and the % cells transfected over the no peptide control,[4],increased
same,RF (Relative Fluorescence) of Transfection of HeLa Cells,[5],29119
same,RF (Relative Fluorescence) of Transfection of Human Fibroblast Cells,[6],8653
same,RF (Relative Fluorescence) of Transfection of C2C12 Cells,[7],4291
same,"RF (Relative Fluorescence), DOTMA/SEQ ID NO: 72/Peptide, HeLa Cells",[8]; [9],36315
same,"RF (Relative Fluorescence), DOTMA/SEQ ID NO: 72/Peptide, HeLa Cells",[8]; [10],44772
same,"RF (Relative Fluorescence), DOTMA/SEQ ID NO: 72/Peptide, HeLa Cells",[8]; [11],36882
same,"RF (Relative Fluorescence), DOTMA/SEQ ID NO: 72/Peptide, HeLa Cells",[8]; [12],25802
